In US10329324B2 (viDA Therapeutics Inc., priority 2013, dated 2019):

Biological target: T1, human Granzyme B (hGzmB) (Homo sapiens, UniProt P10144)
T1 construct: purchased Froelich Lab, Northshore University Health Systems Research Institute, Evanston, Ill., USA
Assay: Human Granzyme B enzymatic inhibition assay (fluorogenic, kinetic)
Format: biochemical
Details: activity codes, Table 7; read-out: IC50 Activity Range
Method: A specific 2× assay buffer was prepared for the enzyme to be tested (see Table 2 for final 1× assay buffer compositions). If the assay buffer included DTT, it was added immediately prior to running the assay. A 2× enzyme mix was prepared (see Table 3 for enzyme assay conditions) at 80 uL per well. Compounds were screened at one or two appropriate concentrations (to determine the percent inhibition at those concentrations) and/or a full dose response curve (typically 8 points, to identify the IC50) in duplicate, triplicate, or higher replicates as needed. An appropriate control was also assessed in full dose response, in duplicate for each assay/plate. Background control wells consisted of 1× assay buffer, DMSO (5% v/v) and substrate. Positive control wells consisted of enzyme, DMSO (5% v/v) and substrate. Test compounds and control compounds were diluted in DMSO to […] the final desired concentration. For example, a test compound may be tested in dose response, in serial, tripling dilution condition starting at 20 uM and ending at 9.1 nM (or any appropriate concentration range and dilution scheme). Control compounds were prepared similarly. Diluted compounds were prepared in a dilution plate and transferred to the reaction plate (96-well medium binding plate (Greiner Bio-One FLUOTRAC™)) to allow for the desired final concentrations when added to the enzyme with AB. After mixing, the reaction plate was placed on a shaker (at 300 RPM) for 5 min, followed by incubation (covered) on the bench, for 20 min. Plates were warmed to reaction temperature (see Table 3) for a total incubation time of 30 min. Plates so prepared were ready for addition of substrate and the subsequent reaction.
(§1) An appropriate substrate for each assay was prepared in advance at 2× the final desired concentration (see Table 2) in DMSO. The appropriate substrate mix was added to each appropriate well on the reaction plate, and the plate was read immediately in the TECAN plate reader (TECAN INFINITE® M1000 Pro), set to the correct wavelength as needed for each assay (see Table 3) using 25 cycles, kinetic interval of 1 min, number of reads per well of 20 with shaking set to 1 s, double orbital, 2 mm amplitude. For fluorescent assays the gain was set to optimal (50%).
An in vitro fluorogenic detection assay for assessing the IC50 and/or percent inhibition at a given concentration of inhibitors against human Granzyme B (hGzmB) enzyme was performed as described in Example D1. When appropriate, percent inhibition data was collected and fitted to generate IC50 data using GraphPad Prism 5 (GraphPad Software, La Jolla Calif. USA, www.graphpad.com) and its non-linear regression analysis tools or other equivalent tools. […]
as §1, with “5)” for “2)”, “assay buffer. 30 uL of the” for “DMSO. The”, “6)” for “3)”, “15” for “25”, “(100% with gain regulation) for all assays except human GzmB which was set to 85 (with the z set at 23000 um).” for “(50%).”
An in vitro fluorogenic detection assay for assessing the IC50 and/or percent inhibition at a given concentration of inhibitors against human Granzyme B (hGzmB) enzyme was performed as described in Example D5. When appropriate, percent inhibition data was collected and fitted to generate IC50 data using GraphPad Prism 5 (GraphPad Software, La Jolla Calif. USA, www.graphpad.com) and its non-linear regression analysis tools or other equivalent tools.

T1 sequence (P10144 21-247): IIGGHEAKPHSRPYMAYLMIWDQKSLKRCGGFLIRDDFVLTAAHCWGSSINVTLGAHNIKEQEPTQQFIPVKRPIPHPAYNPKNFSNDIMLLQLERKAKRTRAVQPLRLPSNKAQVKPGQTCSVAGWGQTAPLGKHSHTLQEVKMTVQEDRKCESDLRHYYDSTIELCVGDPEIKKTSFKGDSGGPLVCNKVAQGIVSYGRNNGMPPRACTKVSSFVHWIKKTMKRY

With C[C@H](O)[C@H](NC(=O)Cc1ccccc1)C(=O)NCC(=O)N1c2ccccc2C[C@H]1C(=O)NCc1nn[nH]n1 [Example C3, (2S)-1-{2-[(2S,3S)-3-Hydroxy-2-(2-Phenylacetamido)Butanamido]Acetyl}-N-(2H-1,2,3,4-Tetrazol-5-Ylmethyl)-2,3-Dihydro-1H-Indole-2-Carboxamide] as the compound, how does the IC50 read?
Its IC50 is > 10 µM.

With CC(C)C[C@H](NC(=O)Cc1ccccc1)C(=O)NCC(=O)N1c2ccccc2C[C@H]1C(=O)NCc1nn[nH]n1 [Example C4, (2S)-1-{2-[(2S)-4-Methyl-2-(2-Phenylacetamido)Pentanamido]Acetyl}-N-(2H-1,2,3,4-Tetrazol-5-Ylmethyl)-2,3-Dihydro-1H-Indole-2-Carboxamide] as the compound, how does the IC50 read?
Its IC50 is 1 to 10 µM.

For CCC[C@H](NC(=O)Cc1ccccc1)C(=O)NCC(=O)N1c2ccccc2C[C@H]1C(=O)NCc1nn[nH]n1 [Example C5, (2S)-1-{2-[(2S)-2-(2-Phenylacetamido)Pentanamido]Acetyl}-N-(2H-1,2,3,4-Tetrazol-5-Ylmethyl)-2,3-Dihydro-1H-Indole-2-Carboxamide], which IC50 is on record?
Its IC50 is 1 to 10 µM.

With CC(C)(C)[C@H](NC(=O)Cc1ccccc1)C(=O)NCC(=O)N1c2ccccc2C[C@H]1C(=O)NCc1nn[nH]n1 [Example C6, (2S)-1-{2-[(2S)-3,3-Dimethyl-2-(2-Phenylacetamido)Butanamido]Acetyl}-N-(2H-1,2,3,4-Tetrazol-5-Ylmethyl)-2,3-Dihydro-1H-Indole-2-Carboxamide] as the compound, how does the IC50 read?
The IC50 was 1 to 10 µM.

Which IC50 does the source give for CO[C@H](C)[C@H](NC(=O)Cc1ccccc1)C(=O)NCC(=O)N1c2ccccc2C[C@H]1C(=O)NCc1nn[nH]n1 [Example C7, (2S)-1-{2-[(2S,3R)-3-Methoxy-2-(2-Phenylacetamido)Butanamido]Acetyl}-N-(2H-1,2,3,4-Tetrazol-5-Ylmethyl)-2,3-Dihydro-1H-Indole-2-Carboxamide] here?
Its IC50 is 1 to 10 µM.

CC(C)(C)OC[C@H](NC(=O)Cc1ccccc1)C(=O)NCC(=O)N1c2ccccc2C[C@H]1C(=O)NCc1nn[nH]n1 [Example C8, (2S)-1-{2-[(2S)-3-(Tert-Butoxy)-2-(2-Phenylacetamido)Propanamido]Acetyl}-N-(2H-1,2,3,4-Tetrazol-5-Ylmethyl)-2,3-Dihydro-1H-Indole-2-Carboxamide] was tested. Which IC50 did it give?
The IC50 was > 10 µM.

With C[C@@H](OC(C)(C)C)[C@H](NC(=O)Cc1ccccc1)C(=O)NCC(=O)N1c2ccccc2C[C@H]1C(=O)NCc1nn[nH]n1 [Example C9, (2S)-1-{2-[(2S,3R)-3-(Tert-Butoxy)-2-(2-Phenylacetamido)Butanamido]Acetyl}-N-(2H-1,2,3,4-Tetrazol-5-Ylmethyl)-2,3-Dihydro-1H-Indole-2-Carboxamide] as the compound, how does the IC50 read?
Its IC50 is > 10 µM.

How did the IC50 turn out when C[C@H](OC(C)(C)C)[C@H](NC(=O)Cc1ccccc1)C(=O)NCC(=O)N1c2ccccc2C[C@H]1C(=O)NCc1nn[nH]n1 [Example C10, (2S)-1-{2-[(2S,3S)-3-(Tert-Butoxy)-2-(2-Phenylacetamido)Butanamido]Acetyl}-N-(2H-1,2,3,4-Tetrazol-5-Ylmethyl)-2,3-Dihydro-1H-Indole-2-Carboxamide] was run?
Its IC50 is > 10 µM.

How did the IC50 turn out when CC[C@H](C)[C@H](NC(=O)Cc1ccccc1)C(=O)N[C@@H](CC(=O)O)C(=O)N1c2ccccc2C[C@H]1C(=O)NCc1nn[nH]n1 [Example C14] was run?
Its IC50 is 1 to 10 µM.

With CC[C@H](C)[C@H](NC(=O)Cc1ccccc1)C(=O)N[C@H](CC(=O)O)C(=O)N1c2ccccc2C[C@H]1C(=O)NCc1nn[nH]n1 [Example C15, (3R)-3-[(2S,3S)-3-Methyl-2-(2-Phenylacetamido)Pentanamido]-4-Oxo-4-[(2S)-2-[(2H-1,2,3,4-Tetrazol-5-Ylmethyl)Carbamoyl]-2,3-Dihydro-1H-Indol-1-Yl]Butanoic Acid] as the compound, how does the IC50 read?
Its IC50 is 1 to 10 µM.

How did the IC50 turn out when CC[C@H](C)[C@H](NC(=O)Cc1ccccc1)C(=O)N[C@H](CCC(=O)O)C(=O)N1c2ccccc2C[C@H]1C(=O)NCc1nn[nH]n1 [Example C16, (4R)-4-[(2S,3S)-3-Methyl-2-(2-Phenylacetamido)Pentanamido]-5-Oxo-5-[(2S)-2-[(2H-1,2,3,4-Tetrazol-5-Ylmethyl)Carbamoyl]-2,3-Dihydro-1H-Indol-1-Yl]Pentanoic Acid] was run?
The IC50 was 0.1 to 1 µM.

Which IC50 does the source give for CC[C@H](C)[C@H](NC(=O)Cc1ccccc1)C(=O)N[C@@H](CCCC(=O)O)C(=O)N1c2ccccc2C[C@H]1C(=O)NCc1nn[nH]n1 [Example C17, (5S)-5-[(2S,3S)-3-Methyl-2-(2-Phenylacetamido)Pentanamido]-6-Oxo-6-[(2S)-2-[(2H-1,2,3,4-Tetrazol-5-Ylmethyl)Carbamoyl]-2,3-Dihydro-1H-Indol-1-Yl]Hexanoic Acid] here?
The IC50 was 1 to 10 µM.

With CC[C@H](C)[C@H](NC(=O)Cc1ccccc1)C(=O)N[C@@H](CCCCN)C(=O)N1c2ccccc2C[C@H]1C(=O)NCc1nn[nH]n1 [Example C18, (2S)-1-[(2S)-6-Amino-2-[(2S,3S)-3-Methyl-2-(2-Phenylacetamido)Pentanamido]Hexanoyl]-N-(2H-1,2,3,4-Tetrazol-5-Ylmethyl)-2,3-Dihydro-1H-Indole-2-Carboxamide] as the compound, how does the IC50 read?
Its IC50 is > 10 µM.

How did the IC50 turn out when CC[C@H](C)[C@H](NC(=O)Cc1ccccc1)C(=O)NCC(=O)N1c2cc(NC(=O)OC(C)(C)C)ccc2C[C@H]1C(=O)NCc1nn[nH]n1 [Example C19, Tert-Butyl N-[(2S)-1-{2-[(2S,3S)-3-Methyl-2-(2-Phenylacetamido)Pentanamido]Acetyl}-2-[(2H-1,2,3,4-Tetrazol-5-Ylmethyl)Carbamoyl]-2,3-Dihydro-1H-Indol-6-Yl]Carbamate] was run?
Its IC50 is 0.1 to 1 µM.

For CC[C@H](C)[C@H](NC(=O)Cc1ccccc1)C(=O)NCC(=O)N1c2cc(NCc3ccccc3)ccc2C[C@H]1C(=O)NCc1nn[nH]n1 [Example C21, (2S)-6-(Benzylamino)-1-{2-[(2S,3S)-3-Methyl-2-(2-Phenylacetamido)Pentanamido]Acetyl}-N-(2H-1,2,3,4-Tetrazol-5-Ylmethyl)-2,3-Dihydro-1H-Indole-2-Carboxamide], which IC50 is on record?
The IC50 was > 10 µM.

How did the IC50 turn out when O=C(O)CCC(=O)N[C@H](C(=O)NCC(=O)N1c2ccccc2C[C@H]1C(=O)NCc1nn[nH]n1)c1ccsc1 [Example C23, 3-{[(S)-({2-Oxo-2-[(2S)-2-[(2H-1,2,3,4-Tetrazol-5-Ylmethyl)Carbamoyl]-2,3-Dihydro-1H-Indol-1-Yl]Ethyl}Carbamoyl)(Thiophen-3-Yl)Methyl]Carbamoyl}Propanoic Acid] was run?
Its IC50 is 1 to 10 µM.

O=C(O)CCC(=O)N1CCCC[C@H]1C(=O)NCC(=O)N1c2ccccc2C[C@H]1C(=O)NCc1nn[nH]n1 [Example C25, 4-Oxo-4-[(2S)-2-({2-Oxo-2-[(2S)-2-[(2H-1,2,3,4-Tetrazol-5-Ylmethyl)Carbamoyl]-2,3-Dihydro-1H-Indol-1-Yl]Ethyl}Carbamoyl)Piperidin-1-Yl]Butanoic Acid] was tested. Which IC50 did it give?
Its IC50 is 1 to 10 µM.

Which IC50 does the source give for CC[C@H](C)[C@H](Nc1ncccn1)C(=O)NCC(=O)N1c2ccccc2C[C@H]1C(=O)NCc1nn[nH]n1 [Example C26, (2S)-1-{2-[(2S,3S)-3-Methyl-2-[(Pyrimidin-2-Yl)Amino]Pentanamido]Acetyl}-N-(2H-1,2,3,4-Tetrazol-5-Ylmethyl)-2,3-Dihydro-1H-Indole-2-Carboxamide] here?
The IC50 was > 10 µM.

With O=C(O)CCC(=O)N1CCC[C@H]1C(=O)NCC(=O)N1c2ccccc2C[C@H]1C(=O)NCc1nn[nH]n1 [Example C28, 4-Oxo-4-[(2S)-2-({2-Oxo-2-[(2S)-2-[(2H-1,2,3,4-Tetrazol-5-Ylmethyl)Carbamoyl]-2,3-Dihydro-1H-Indol-1-Yl]Ethyl}Carbamoyl)Pyrrolidin-1-Yl]Butanoic Acid] as the compound, how does the IC50 read?
Its IC50 is > 10 µM.
